Columns and labels:
[1] = target: Melanocortin receptor 3 (Homo sapiens, UniProt P41968); format: cell membranes, Membrane; conditions: hek293; further: in other assays of this panel Not Active means under 50% inhibition at 10 µM
[2] = DRUGMATRIX: Calcium Channel Type L, Benzothiazepine radioligand binding (ligand: [3H] Diltiazem); format: cell membranes, Rattus norvegicus, Wistar, Brain, Membrane; conditions: Not Active = under 50% inhibition at 10 µM
[3] = DRUGMATRIX: beta-Lactamase enzyme inhibition (substrate: Nitrocefin); design: species or system Bacillus cereus; conditions: Not Active = under 50% inhibition at 10 µM
[4] = target: T1, Cholecystokinin receptor type A (Homo sapiens, UniProt P32238); format: cell membranes, Membrane; conditions: 1321-n1; further: in other assays of this panel Not Active means under 50% inhibition at 10 µM
T1 sequence (P32238 whole entry): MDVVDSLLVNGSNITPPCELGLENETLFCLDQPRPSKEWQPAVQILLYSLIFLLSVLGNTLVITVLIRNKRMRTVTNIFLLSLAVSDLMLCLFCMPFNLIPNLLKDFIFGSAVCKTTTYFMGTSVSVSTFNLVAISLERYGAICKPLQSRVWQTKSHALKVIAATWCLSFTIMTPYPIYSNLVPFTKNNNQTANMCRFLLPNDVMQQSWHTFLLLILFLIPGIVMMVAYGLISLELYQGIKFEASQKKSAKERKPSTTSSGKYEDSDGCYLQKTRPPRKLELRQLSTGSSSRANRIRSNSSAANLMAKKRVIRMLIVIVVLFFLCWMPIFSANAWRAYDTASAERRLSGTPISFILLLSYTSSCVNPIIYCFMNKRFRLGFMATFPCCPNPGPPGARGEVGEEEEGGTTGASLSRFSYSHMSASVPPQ

[5] = target: Glycine receptor (Rattus norvegicus, UniProt P22771+P24524+P07727+P20781); format: cell membranes, Wistar, Spinal cord, Membrane; further: in other assays of this panel Not Active means under 50% inhibition at 10 µM
[6] = target: T2, Alpha-2C adrenergic receptor (Homo sapiens, UniProt P18825); assay: DRUGMATRIX: Adrenergic Alpha-2C radioligand binding (ligand: [3H] MK-912); format: cell membranes, Sf9, Membrane
T2 sequence (P18825 whole entry): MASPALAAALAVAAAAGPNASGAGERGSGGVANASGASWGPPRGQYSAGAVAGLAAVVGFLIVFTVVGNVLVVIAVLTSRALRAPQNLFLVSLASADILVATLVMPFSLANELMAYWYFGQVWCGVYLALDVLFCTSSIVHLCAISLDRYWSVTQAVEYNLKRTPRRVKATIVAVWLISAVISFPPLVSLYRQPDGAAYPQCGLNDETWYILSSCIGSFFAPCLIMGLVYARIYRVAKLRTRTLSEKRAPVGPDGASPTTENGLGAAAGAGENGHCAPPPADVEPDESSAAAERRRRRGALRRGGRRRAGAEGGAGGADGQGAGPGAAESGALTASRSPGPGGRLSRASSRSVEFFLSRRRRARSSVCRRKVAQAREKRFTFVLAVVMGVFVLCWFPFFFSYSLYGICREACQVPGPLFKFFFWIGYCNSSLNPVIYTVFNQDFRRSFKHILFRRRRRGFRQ

[7] = target: Platelet-activating factor receptor (Homo sapiens, UniProt P25105); format: tissue-based; further: in other assays of this panel Not Active means under 50% inhibition at 10 µM
Platelet-activating factor receptor, sequence (P25105 whole entry): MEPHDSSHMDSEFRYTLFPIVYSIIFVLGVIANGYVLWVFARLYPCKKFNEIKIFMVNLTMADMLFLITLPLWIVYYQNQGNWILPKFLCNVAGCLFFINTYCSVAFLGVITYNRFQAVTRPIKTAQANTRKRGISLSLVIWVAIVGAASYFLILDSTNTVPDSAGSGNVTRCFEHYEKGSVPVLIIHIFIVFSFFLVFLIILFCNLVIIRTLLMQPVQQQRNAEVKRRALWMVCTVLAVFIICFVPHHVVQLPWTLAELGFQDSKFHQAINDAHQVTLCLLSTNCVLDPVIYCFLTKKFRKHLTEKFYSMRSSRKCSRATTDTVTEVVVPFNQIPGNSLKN

Melanocortin receptor 3, sequence (P41968 whole entry): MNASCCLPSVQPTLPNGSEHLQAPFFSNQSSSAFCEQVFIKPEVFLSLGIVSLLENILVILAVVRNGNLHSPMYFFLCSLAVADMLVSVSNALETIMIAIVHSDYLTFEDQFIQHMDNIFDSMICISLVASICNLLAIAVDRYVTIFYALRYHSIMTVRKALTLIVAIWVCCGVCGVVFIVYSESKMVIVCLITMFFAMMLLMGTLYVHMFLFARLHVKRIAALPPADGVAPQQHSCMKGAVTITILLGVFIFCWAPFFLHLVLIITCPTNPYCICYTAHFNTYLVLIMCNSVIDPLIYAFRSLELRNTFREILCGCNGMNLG

Compound | IC50 [1] | IC50 [2] | Ki [2] | IC50 [3] | Ki [3] | IC50 [4] | IC50 [5] | IC50 ([6]; sf9) | IC50 [7] | IC50 ([2]; read-out: IC50) | Ki ([2]; read-out: Ki) | IC50 ([6]; read-out: IC50) | Ki ([6]; read-out: Ki)
CN1C(=O)CN=C(c2ccccc2)c2cc([N+](=O)[O-])ccc21 [NIMETAZEPAM] | Not Active | Not Active | Not Active | Not Active | Not Active | Not Active | Not Active | Not Active | Not Active | – | – | – | –
C[C@@H]1C/C=C/C=C/C=C/C=C/[C@H](O[C@@H]2O[C@H](C)[C@@H](O)[C@H](N)[C@@H]2O)C[C@@H]2O[C@](O)(C[C@@H](O)C[C@H]3O[C@@H]3/C=C/C(=O)O1)C[C@H](O)[C@H]2C(=O)O [NATAMYCIN] | Not Active | Not Active | Not Active | Not Active | Not Active | Not Active | Not Active | Not Active | Not Active | – | – | – | –
ClC(Cl)(Cl)Cl [CARBON TETRACHLORIDE] | Not Active | Not Active | Not Active | Not Active | Not Active | Not Active | Not Active | Not Active | Not Active | – | – | – | –
NC12CC3CC(CC(C3)C1)C2 [AMANTADINE] | Not Active | Not Active | Not Active | Not Active | Not Active | Not Active | Not Active | Not Active | Not Active | – | – | – | –
CC(C)c1c(C(=O)Nc2ccccc2)c(-c2ccccc2)c(-c2ccc(F)cc2)n1CC[C@@H](O)C[C@@H](O)CC(=O)O [ATORVASTATIN] | Not Active | Not Active | Not Active | Not Active | Not Active | Not Active | Not Active | Not Active | Not Active | – | – | – | –
CN(C)CCC=C1c2ccccc2CCc2ccccc21 [AMITRIPTYLINE] | Not Active | – | – | Not Active | Not Active | Not Active | Not Active | – | Not Active | 1.99 µM | 1.77 µM | 0.059 µM | 0.0086 µM
C[C@]12CC[C@H]3[C@@H](CCC4=CC(=O)CC[C@@H]43)[C@@H]1CC[C@@H]2O [NANDROLONE] | Not Active | Not Active | Not Active | Not Active | Not Active | Not Active | Not Active | Not Active | Not Active | – | – | – | –
N=C(N)c1ccc(OCCCCCOc2ccc(C(=N)N)cc2)cc1 [PENTAMIDINE] | Not Active | – | – | Not Active | Not Active | Not Active | Not Active | Not Active | Not Active | 2.21 µM | 1.96 µM | – | –
CCOc1nc2cccc(C(=O)O)c2n1Cc1ccc(-c2ccccc2-c2nnn[nH]2)cc1 | Not Active | Not Active | Not Active | Not Active | Not Active | Not Active | Not Active | Not Active | Not Active | – | – | – | –
COc1cccc2c1C(=O)c1c(O)c3c(c(O)c1C2=O)C[C@@](O)(C(C)=O)C[C@@H]3O[C@H]1C[C@H](N)[C@H](O)[C@H](C)O1 [DAUNORUBICIN] | Not Active | Not Active | Not Active | Not Active | Not Active | Not Active | Not Active | Not Active | Not Active | – | – | – | –
CC(O)(P(=O)(O)O)P(=O)(O)O [ETIDRONIC ACID] | Not Active | Not Active | Not Active | Not Active | Not Active | Not Active | Not Active | Not Active | Not Active | – | – | – | –
CC(=O)Oc1ccccc1C(=O)O [ASPIRIN] | Not Active | Not Active | Not Active | Not Active | Not Active | Not Active | Not Active | Not Active | Not Active | – | – | – | –
O=c1[nH]c(=O)n([C@H]2C[C@H](O)[C@@H](CO)O2)cc1F [FLOXURIDINE] | Not Active | Not Active | Not Active | Not Active | Not Active | Not Active | Not Active | Not Active | Not Active | – | – | – | –
O=C(O)CC(O)(CC(=O)O)C(=O)O [CITRIC ACID] | Not Active | Not Active | Not Active | Not Active | Not Active | Not Active | Not Active | Not Active | Not Active | – | – | – | –
CCCCC1=NC2(CCCC2)C(=O)N1Cc1ccc(-c2ccccc2-c2nnn[nH]2)cc1 [IRBESARTAN] | Not Active | Not Active | Not Active | Not Active | Not Active | Not Active | Not Active | Not Active | Not Active | – | – | – | –
O=c1c(-c2ccc(O)cc2)coc2cc(O)cc(O)c12 [GENISTEIN] | Not Active | Not Active | Not Active | Not Active | Not Active | Not Active | Not Active | Not Active | Not Active | – | – | – | –
CN(C)C(=N)NC(=N)N [METFORMIN] | Not Active | Not Active | Not Active | Not Active | Not Active | Not Active | Not Active | Not Active | Not Active | – | – | – | –
C[C@H]1O[C@H](O[C@H]2[C@H](O)[C@@H](O)[C@@H](O[C@H]3[C@H](O)[C@@H](O)C(O)O[C@@H]3CO)O[C@@H]2CO)[C@H](O)[C@@H](O)[C@@H]1N[C@H]1C=C(CO)[C@@H](O)[C@H](O)[C@H]1O (some centres not stated) [ACARBOSE] | Not Active | Not Active | Not Active | Not Active | Not Active | Not Active | Not Active | Not Active | Not Active | – | – | – | –
COc1ccccc1N | Not Active | Not Active | Not Active | Not Active | Not Active | Not Active | Not Active | Not Active | Not Active | – | – | – | –
CC(O)COC[C@H]1O[C@@H]2O[C@H]3[C@H](O)[C@@H](O)[C@@H](O[C@H]4[C@H](O)[C@@H](O)[C@@H](O[C@H]5[C@H](O)[C@@H](O)[C@@H](O[C@H]6[C@H](O)[C@@H](O)[C@@H](O[C@H]7[C@H](O)[C@@H](O)[C@@H](O[C@H]8[C@H](O)[C@@H](O)[C@@H](O[C@H]1[C@H](O)[C@H]2O)O[C@@H]8COCC(C)O)O[C@@H]7COCC(C)O)O[C@@H]6COCC(C)O)O[C@@H]5COCC(C)O)O[C@@H]4COCC(C)O)O[C@@H]3COCC(C)O (stereo partly drawn) [2-HYDROXYPROPYL-BETA-CYCLODEXTRIN] | Not Active | Not Active | Not Active | Not Active | Not Active | Not Active | Not Active | Not Active | Not Active | – | – | – | –
N[C@@H](Cn1ccc(=O)c(O)c1)C(=O)O [L-MIMOSINE] | Not Active | Not Active | Not Active | Not Active | Not Active | Not Active | Not Active | Not Active | Not Active | – | – | – | –
CS(=O)(=O)Nc1ccc([N+](=O)[O-])cc1Oc1ccccc1 [NIMESULIDE] | Not Active | Not Active | Not Active | Not Active | Not Active | Not Active | Not Active | Not Active | Not Active | – | – | – | –
C[N+](C)(C)C[C@H](O)CC(=O)[O-] [LEVOCARNITINE] | Not Active | Not Active | Not Active | Not Active | Not Active | Not Active | Not Active | Not Active | Not Active | – | – | – | –
O=C(O)c1cc(-c2ccc(F)cc2F)ccc1O [DIFLUNISAL] | Not Active | Not Active | Not Active | Not Active | Not Active | Not Active | Not Active | Not Active | Not Active | – | – | – | –

From ChEMBL document CHEMBL1909046, “DrugMatrix in vitro pharmacology data”
